Data on seven molecules can be found in patent publication US11078166B2, “Triazole conjugated ureas, thioureas, carbamates, and reversed carbamates for PSMA-targeted imaging agents and uses thereof” (THE JOHNS HOPKINS UNIVERSITY, priority 2015, dated 2021).

A short description of series [1]: Radiation dosimetry: kidney biological clearance half-life and AUC from % ID/g data. Format: in vivo, NOD-SCID mice. The settings on record: for AUC in kidneys / Biological half-life in kidneys: single exponential fit of kidney % ID/g. From the text: Radiation Dosimetry. […] The simulation analysis and modeling software package SAAM II (The Epsilon Group, Charlottesville, Va.) was used to perform the fits.

Series [2] in a line: Lipophilicity, octanol-water partition coefficient by shake-flask method. Format: physicochemical. Conditions: pH 7.4. How it is done: Lipophilicity Determination. Octanol-water partition coefficients [log P (pH 7.4) values] were determined according to a literature procedure (Banerjee et al., J. Med. Chem. 2010). […] After vigorously shaking the mixture, it was centrifuged at 3,000 rpm for 5 min. Aliquots were removed from the two phases, and the radioactivity was measured in a 1282 Compugamma CS γ-counter, (LKB, Wallac, Turku, Finland).
Lipophilicity. Octanol-water partition coefficient (log P) values were measured by the shake-flask method using 1-octanol and PBS (pH 7.4). The log P of [^18F]YC-88 at pH 7.4 was −3.91.

The target of series [3] is T1, PSMA (Homo sapiens, UniProt Q04609).
T1 construct: endogenous in cells; host or cells: LNCaP cell lysate
Nature of the series: NAALADase assay (fluorescence-based Amplex Red glutamic acid assay), PSMA inhibition. It is filed as biochemical. The settings on record: for Ki: LNCaP cell lysates, 4 μM NAAG, Cheng-Prusoff conversion. The method, then: NAALADase Assay (Kozikowski et al., J. Med. Chem. 2004). The binding affinities of compounds YC-88, YC-71 and YC-XY-01 were tested with an established protocol. Briefly, cell lysates of Lymph Node Carcinoma of the Prostate (LNCaP) cell extracts (25 μL) were incubated with the inhibitor (12.5 μL) in the presence of 4 μM N-acetylaspartylglutamate (NAAG) (12.5 μL) at 37° C. for 120 min. The amount of the glutamate released by NAAG hydrolysis was measured by incubating with a working solution (50 μL) of the Amplex Red Glutamic Acid Kit (Life Technologies, Grand Island, N.Y.) at 37° C. for 60 min. Fluorescence was measured with a VICTOR^3V multilabel plate reader (Perkin Elmer Inc., Waltham, Mass.) with excitation at 490 nm and emission at 642 nm. Inhibition curves were determined using semi-log plots and IC50 values were determined at the concentration at which enzyme activity was inhibited by 50%. Assays were performed in triplicate with the entire inhibition study being repeated at least once to confirm affinity and mode of inhibition. Enzyme inhibitory constants (Ki values) were generated using the Cheng-Prusoff conversion. […]. Data analysis was performed using GraphPad Prism version 4.00 for Windows (GraphPad Software, San Diego, Calif.).
PSMA Inhibition Assay. The PSMA binding affinity of YC-88 were determined using a modification of the Amplex Red glutamic acid assay (Chen et al., Biochem. Biophys. Res. Commun. 2009).

Series [4] concerns the target T1, PSMA. Conditions: from Chen et al. 2008 and 2011; read-out: Ki value, PSMA (for comparison); cited from earlier work.

Entries after “also recorded” stand apart in the source; their conditions may differ. Read-outs that look alike come from different tables or passages of the source.

T1 sequence (Q04609 whole entry): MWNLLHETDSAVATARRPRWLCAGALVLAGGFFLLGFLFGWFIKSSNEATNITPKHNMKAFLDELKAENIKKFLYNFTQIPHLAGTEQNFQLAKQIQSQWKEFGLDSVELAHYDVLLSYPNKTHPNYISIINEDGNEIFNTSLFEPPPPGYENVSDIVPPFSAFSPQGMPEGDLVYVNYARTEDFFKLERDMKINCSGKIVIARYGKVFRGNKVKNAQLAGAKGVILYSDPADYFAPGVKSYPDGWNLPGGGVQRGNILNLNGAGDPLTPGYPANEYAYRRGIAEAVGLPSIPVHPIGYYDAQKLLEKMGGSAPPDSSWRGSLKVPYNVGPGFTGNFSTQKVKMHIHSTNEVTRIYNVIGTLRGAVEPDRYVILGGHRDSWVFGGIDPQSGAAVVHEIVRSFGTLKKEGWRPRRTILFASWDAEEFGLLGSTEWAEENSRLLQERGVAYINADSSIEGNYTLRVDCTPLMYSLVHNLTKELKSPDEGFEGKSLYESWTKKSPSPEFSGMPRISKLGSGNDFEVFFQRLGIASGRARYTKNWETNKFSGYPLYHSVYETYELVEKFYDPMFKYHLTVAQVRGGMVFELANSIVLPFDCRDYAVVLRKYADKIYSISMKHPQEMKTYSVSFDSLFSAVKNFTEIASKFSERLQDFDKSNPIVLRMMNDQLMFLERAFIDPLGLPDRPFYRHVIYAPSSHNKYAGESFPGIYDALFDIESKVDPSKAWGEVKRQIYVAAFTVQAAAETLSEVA

In the case of `O=C(O)CCC(NC(=O)NC(CCCCNC(=O)c1ccc([18F])nc1)C(=O)O)C(=O)O` (stereo not shown) [[^18F]DCFPyL, 2-(3-{1-carboxy-5-[(6-[^18F]fluoropyridine-3-carbonyl)-amino]-pentyl}-ureido)-pentanedioic acid, reference compound], in series [1], the AUC in kidneys turned out to be 340.74 % ID/g-h and the “Biological half-life in kidneys” value came out at 1.20 h. Moreover, the “log P (octanol-water partition coefficient)” value in series [2] (1-octanol and PBS) is reported as −3.27.
With `O=C(O)CCC(NC(=O)NC(CCCCNC(=O)CCCCCCC(=O)NC(CCCCNC(=O)CCc1cn(CCF)nn1)C(=O)O)C(=O)O)C(=O)O` (stereo not shown) [YC-71], at PSMA [3], the “Binding affinity to PSMA (in words)” value is “high binding affinity to PSMA” and affinity was put at a Ki of 0.6 nM.
Turning to `O=C(O)CC[C@H](OC(=O)N[C@@H](CCCCNC(=O)CCc1cn(CCF)nn1)C(=O)O)C(=O)O` [YC-XY-01, (S)-2-((((S)-1-carboxy-5-(3-(1-(2-fluoroethyl)-1H-1,2,3-triazol-4-yl)propanamido)pentyl)carbamoyl)oxy)pentanedioic acid], at PSMA [3], the “Binding affinity to PSMA (in words)” value is “high binding affinity to PSMA” and the Ki was 473 nM.
In the case of `O=C(O)CCC(NC(=O)NC(CCCCNC(=O)CCc1cn(CCF)nn1)C(=O)O)C(=O)O` (stereo not shown) [YC-88, 2-[3-(1-Carboxy-5-{3-[1-(2-fluoroethyl)-1H-1,2,3-triazol-yl]propanamido}pentyl)ureido]pentanedioic Acid], on PSMA [3], the “Binding affinity to PSMA (in words)” value is on record as “high affinity for PSMA; also recorded: high binding affinity to PSMA” and the affinity corresponds to a Ki of 12.9 nM.
As to `O=C(O)CCC(NC(=O)NC(CCCCNC(=O)c1ccc(F)cc1)C(=O)O)C(=O)O` (stereo not shown) [DCFBzL], at PSMA [4], the inhibitory constant (Ki) is 0.19 nM.
As to `O=C(O)CC[C@H](NC(=O)N[C@@H](CCCCNC(=O)CCc1cn(CC[18F])nn1)C(=O)O)C(=O)O` [[^18F]YC-88, 2-[3-(1-carboxy-5-{3-[1-(2-[^18F]fluoroethyl)-1H-1,2,3-triazol-yl]propanamido}pentyl)ureido]-pentanedioic acid], in series [1] (mouse, in vivo), the “AUC ratio (agent/YC-88) in kidneys” value is 1 and the “Kidney absorbed dose, decrease compared to [^18F]DCFPyL” value is given as around 5 fold. In series [1], the AUC in kidneys is reported as 70.7 % ID/g-h and the “Biological half-life in kidneys” value worked out at 1.52 h. The logP in series [2] was -3.91.
As for `O=C(O)CC[C@H](NC(=O)N[C@@H](CSCc1ccc(F)cc1)C(=O)O)C(=O)O` [DCFBC], on PSMA [4], the inhibitory constant (Ki) was 0.44 nM.
